The source made the active and inactive calls. No cut-off for these calls is given here.
What was measured:
[1] = system: Bipolaris oryzae; assay: Antifungal activity against Bipolaris oryzae incubated for 5 days; assay type: functional, organism-based; details: time 5.0 day
[2] = system: COLO 201; assay: Cytotoxicity against human COLO201 cells assessed as reduction in cell proliferation measured after 24 hrs by WST-1 assay; assay type: functional, cell-based; details: COLO 201, 24 h

CC(=O)[C@@H](O)c1c(C)ccc2c1O[C@@]1(O2)[C@@]2(O)C=C[C@@H](C)[C@@H]3[C@H]2OC(=O)[C@@]31O
Activity [1]: inactive
IC50 [2]: 200 µM

CC(=O)[C@H](O)[C@H]1[C@H](C)C=CC(=O)[C@@H]1O
Activity [1]: inactive
IC50 [2]: > 500 µM

C=C1OC(=O)[C@]23[C@@H]1O[C@H](CC(=O)[C@@H]2O)[C@H]3C
Activity [1]: inactive
IC50 [2]: 390 µM

CC(=O)C(O)c1cc(O)ccc1C (stereo not drawn)
Activity [1]: inactive
IC50 [2]: 340 µM

CC(=O)[C@@H](O)c1c(C)ccc2c1O[C@]1(O2)[C@@]2(O)C=C[C@@H](C)[C@@H]3[C@H]2OC(=O)[C@@]31O
Activity [1]: inactive
IC50 [2]: 260 µM

Cc1ccc(O)cc1C(=O)[C@H](C)O
Activity [1]: inactive
IC50 [2]: 290 µM

C[C@@H]1C=C[C@]2(O)C[C@@]3(O)C(=O)O[C@@H]2[C@@H]13
Activity [1]: inactive
IC50 [2]: > 500 µM

C[C@@H]1C=C[C@@]2(O)C[C@]3(O)C(=O)O[C@H]2[C@H]13
Activity [1]: inactive
IC50 [2]: 300 µM

COC(=O)[C@]12[C@@H](C(C)=O)O[C@H](CC(=O)[C@@H]1O)[C@H]2C
Activity [1]: inactive
IC50 [2]: 200 µM
